# Test results reported in ChEMBL document CHEMBL1201862, “PubChem BioAssay data set” (2004).
# Active and inactive are the calls of the source. Unless noted, no cut-off for these calls is given here.
# Legend:
# [1] = Intein inhibitors as potential Tuberculosis drugs, a cytotoxicity screen. [Related pubchem assays (depositor defined):AID2221, AID2223, AID434968, AID435010, AID449749, AID449750, AID489010]; format: functional
# [2] = molecular target: DNA damage-inducible transcript 3 protein (Mus musculus, UniProt P35639); format: functional, Cricetulus griseus
# [3] = molecular target: T1, Protein RecA (Mycobacterium tuberculosis, UniProt P9WHJ3); assay: Fluorescence Cell-Free Homogeneous Dose Retest to Identify Inhibitors of RecA-Intein Splicing Activity. [Related pubchem assays (depositor defined):AID2097, AID2223, AID489010, AID492950]; format: functional
# T1 sequence (P9WHJ3 whole entry): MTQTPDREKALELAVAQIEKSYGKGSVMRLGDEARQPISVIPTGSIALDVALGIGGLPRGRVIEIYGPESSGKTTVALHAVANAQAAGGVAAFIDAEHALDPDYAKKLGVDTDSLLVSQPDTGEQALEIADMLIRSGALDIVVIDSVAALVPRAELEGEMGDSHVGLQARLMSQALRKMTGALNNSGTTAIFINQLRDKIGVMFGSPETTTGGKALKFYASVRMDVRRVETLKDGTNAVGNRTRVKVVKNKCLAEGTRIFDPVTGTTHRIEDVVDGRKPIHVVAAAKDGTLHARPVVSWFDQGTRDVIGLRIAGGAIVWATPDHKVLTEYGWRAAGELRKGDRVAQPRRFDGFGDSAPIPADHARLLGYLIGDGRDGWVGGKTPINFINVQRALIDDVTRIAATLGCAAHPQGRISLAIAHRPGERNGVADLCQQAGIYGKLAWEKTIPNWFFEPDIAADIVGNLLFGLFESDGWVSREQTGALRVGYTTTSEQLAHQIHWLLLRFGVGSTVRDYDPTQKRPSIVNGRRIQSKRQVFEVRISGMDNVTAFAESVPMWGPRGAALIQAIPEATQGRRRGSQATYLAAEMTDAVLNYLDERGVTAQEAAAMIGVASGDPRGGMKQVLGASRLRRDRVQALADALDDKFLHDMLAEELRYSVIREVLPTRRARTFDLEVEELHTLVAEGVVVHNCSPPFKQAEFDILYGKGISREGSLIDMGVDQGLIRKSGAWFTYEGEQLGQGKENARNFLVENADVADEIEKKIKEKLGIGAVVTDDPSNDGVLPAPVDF
# [4] = molecular target: T1, Protein RecA; assay: GFP-RecA MOA-DTT Measured in Biochemical System Using Plate Reader - 2047-05_Inhibitor_Dose_DryPowder_Activity. [Related pubchem assays (depositor defined):AID2223]; parameters: species or system Mycobacterium tuberculosis H37Rv
# [5] = GFP fluorescence signal inhibitors, dose response, artefact control, biochemical, plate reader, dry powder (AID 493243)
# [6] = molecular target: T2, Heat shock factor protein 1 (Mus musculus, UniProt P38532); assay: inhibition of MG132-induced HSE-luciferase signal, confirmation, cell-based, NIH3T3, luminescence, dose retest (AID 2382); format: functional;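 note: NIH3T3 fibroblasts with HSF1-driven luciferase reporter stressed by proteasome inhibitor MG132; luminescence from HSF1-driven luciferase expression after 8 hours of MG132 stress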
# T2 sequence (P38532 whole entry): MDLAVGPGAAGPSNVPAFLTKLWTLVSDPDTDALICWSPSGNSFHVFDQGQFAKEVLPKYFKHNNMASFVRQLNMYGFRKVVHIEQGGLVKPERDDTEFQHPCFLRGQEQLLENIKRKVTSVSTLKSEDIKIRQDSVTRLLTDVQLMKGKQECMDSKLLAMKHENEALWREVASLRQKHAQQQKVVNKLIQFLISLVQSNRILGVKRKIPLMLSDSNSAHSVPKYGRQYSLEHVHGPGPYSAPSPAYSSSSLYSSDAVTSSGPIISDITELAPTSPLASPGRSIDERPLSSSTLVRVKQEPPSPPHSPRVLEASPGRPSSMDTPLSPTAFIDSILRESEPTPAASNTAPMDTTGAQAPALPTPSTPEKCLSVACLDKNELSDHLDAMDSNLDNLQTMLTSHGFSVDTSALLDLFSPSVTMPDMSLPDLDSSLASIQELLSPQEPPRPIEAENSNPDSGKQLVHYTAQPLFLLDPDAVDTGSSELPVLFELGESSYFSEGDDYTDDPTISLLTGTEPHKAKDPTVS
# [7] = molecular target: T3, Replicative DNA helicase DnaB (Mycobacterium tuberculosis, UniProt P9WMR3); assay: DnaB intein splicing inhibitors, dose response, biochemical, cell-free fluorescence (AID 449749); format: functional
# T3 sequence (P9WMR3 whole entry): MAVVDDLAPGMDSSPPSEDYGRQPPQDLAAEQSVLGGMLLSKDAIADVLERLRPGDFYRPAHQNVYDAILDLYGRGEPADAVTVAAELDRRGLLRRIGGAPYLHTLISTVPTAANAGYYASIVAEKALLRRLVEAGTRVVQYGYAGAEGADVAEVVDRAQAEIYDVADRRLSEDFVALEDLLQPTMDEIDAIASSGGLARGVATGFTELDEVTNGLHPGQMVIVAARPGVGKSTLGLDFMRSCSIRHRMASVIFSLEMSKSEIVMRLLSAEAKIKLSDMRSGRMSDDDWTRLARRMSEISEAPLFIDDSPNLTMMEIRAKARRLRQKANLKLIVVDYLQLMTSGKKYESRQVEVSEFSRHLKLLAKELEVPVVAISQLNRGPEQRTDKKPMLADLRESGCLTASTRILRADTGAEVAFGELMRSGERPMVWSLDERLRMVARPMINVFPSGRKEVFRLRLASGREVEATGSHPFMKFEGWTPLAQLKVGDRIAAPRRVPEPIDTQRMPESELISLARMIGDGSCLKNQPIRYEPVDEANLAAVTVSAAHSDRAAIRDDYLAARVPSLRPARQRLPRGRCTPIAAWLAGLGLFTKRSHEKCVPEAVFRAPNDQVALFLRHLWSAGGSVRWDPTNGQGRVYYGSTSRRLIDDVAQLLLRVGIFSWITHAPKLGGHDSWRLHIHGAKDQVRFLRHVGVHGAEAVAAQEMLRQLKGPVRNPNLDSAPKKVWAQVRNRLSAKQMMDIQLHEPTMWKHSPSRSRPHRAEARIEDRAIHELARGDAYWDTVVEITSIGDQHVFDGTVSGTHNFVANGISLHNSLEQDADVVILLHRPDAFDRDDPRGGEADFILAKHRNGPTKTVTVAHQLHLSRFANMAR
# [8] = molecular target: T3, Replicative DNA helicase DnaB; assay: DnaB Intein secondary assay Measured in Biochemical System Using Plate Reader - 2047-04_Inhibitor_Dose_DryPowder_Activity. [Related pubchem assays (depositor defined):AID2223]
# [9] = molecular target: T1, Protein RecA; assay: RecA Intein Measured in Biochemical System Using Plate Reader - 2047-02_Inhibitor_Dose_DryPowder_Activity. [Related pubchem assays (depositor defined):AID2223]; parameters: species or system Mycobacterium tuberculosis H37Rv
# [10] = molecular target: T4, SUMO-activating enzyme (Homo sapiens, UniProt Q9UBT2); assay: inhibitors of in vitro SUMOylation cascade, primary screen, biochemical, HTRF, uHTS (AID 2006); format: protein-complex assay
# [11] = cells; format: functional, cell-based
# [12] = cells; format: functional, cell-based; remark: listed apart in the source
# [13] = Luminescence Cell-Based Dose Retest to Confirm Inhibitors of Cancer Stem Cells. [Related pubchem assays (depositor defined):AID2717, AID2721]; format: functional; conditions: Homo sapiens
# [14] = molecular target: T4, SUMO-activating enzyme; assay: SUMOylation inhibitor hit validation, confirmation, SUMOylation inhibitor project, biochemical, AlphaScreen (AID 2018); format: functional
# 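Throughout, for CC50: cells exposed to compound for 72 hours before luminescence readout.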
# T4 sequence (Q9UBE0 whole entry): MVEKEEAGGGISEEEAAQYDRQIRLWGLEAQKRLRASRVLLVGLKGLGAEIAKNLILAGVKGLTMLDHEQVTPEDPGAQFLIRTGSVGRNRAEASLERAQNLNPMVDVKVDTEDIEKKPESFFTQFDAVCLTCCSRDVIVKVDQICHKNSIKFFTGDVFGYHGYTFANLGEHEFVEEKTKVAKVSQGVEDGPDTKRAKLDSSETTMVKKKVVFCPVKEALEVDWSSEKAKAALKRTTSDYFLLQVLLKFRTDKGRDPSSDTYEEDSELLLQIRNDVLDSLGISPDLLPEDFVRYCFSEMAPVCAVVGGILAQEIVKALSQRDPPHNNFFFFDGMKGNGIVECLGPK
# T4 sequence (Q9UBT2 whole entry): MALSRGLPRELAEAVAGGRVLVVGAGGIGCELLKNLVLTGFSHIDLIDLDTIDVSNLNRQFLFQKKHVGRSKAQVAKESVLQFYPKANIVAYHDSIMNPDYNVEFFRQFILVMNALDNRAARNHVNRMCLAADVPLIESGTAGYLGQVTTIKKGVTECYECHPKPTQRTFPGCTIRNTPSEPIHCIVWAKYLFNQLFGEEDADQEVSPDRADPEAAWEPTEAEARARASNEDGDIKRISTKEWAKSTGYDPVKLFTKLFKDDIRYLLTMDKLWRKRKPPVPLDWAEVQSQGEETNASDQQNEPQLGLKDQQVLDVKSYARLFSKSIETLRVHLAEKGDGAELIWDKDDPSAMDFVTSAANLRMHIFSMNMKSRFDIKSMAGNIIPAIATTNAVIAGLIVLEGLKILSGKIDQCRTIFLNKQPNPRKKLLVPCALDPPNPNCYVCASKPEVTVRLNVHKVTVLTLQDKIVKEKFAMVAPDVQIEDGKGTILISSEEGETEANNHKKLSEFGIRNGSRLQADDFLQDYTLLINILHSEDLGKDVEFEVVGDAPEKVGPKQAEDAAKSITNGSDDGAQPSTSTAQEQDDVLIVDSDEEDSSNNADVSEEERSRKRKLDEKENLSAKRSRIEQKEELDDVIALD
# Sequence of DNA damage-inducible transcript 3 protein (P35639 whole entry): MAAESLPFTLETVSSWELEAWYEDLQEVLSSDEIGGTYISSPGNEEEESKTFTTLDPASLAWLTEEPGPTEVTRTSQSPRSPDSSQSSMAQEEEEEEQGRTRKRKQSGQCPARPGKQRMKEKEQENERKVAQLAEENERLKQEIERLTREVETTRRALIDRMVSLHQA
SMILES,CC50 [1],Absolute IC50 (CHOP) [2] [µM],EC50 [3],AC50 [4],AC50 [5],EC50 [6],AC50 [7],AC50 [8],AC50 [9],IC50 [10],EC50 [11],EC50 [12],AC50 [13],IC50 [14]
O=C(CCl)Nc1cn(-c2ccccc2)nc1-c1ccc(F)cc1,6.59 µM (active),10,2.77 µM (active),29.4 µM (active),262 µM (active),6.91 µM (active),2.77 µM (active),101 µM (active),8.58 µM (active),,,,,
C/C(=N\OCc1nc2ccccc2c(=O)n1/N=C/c1cc([N+](=O)[O-])ccc1O)c1ccccc1,,,,,,,,,,41.1 µM (active),> 350 µM (not active),245 µM (active),7.33 µM (active),5.22 µM (active)
